Test results: patent US20100324138A1, “Lipoxin A4 Protection for Retinal Cells” (priority 2007, published 2010)
Where two headings read alike, the source gives them in different places.

Legend:
ARPE-19 cells [1] = test: Lipoxins and NPD1 combined effect on apoptosis induced by oxidative stress in RPE cells; assay type: cell-based, human; details: NPD1 30 nM with lipoxin A4 or its analog 100 nM, 14 h; FIG. 2
Experimental: The growth of RPE cells, serum starvation, and induction of apoptosis were the same as described above in Example 1 and in Mukherjee et al., 2007. To test for a synergistic effect between lipoxin A4 and […] (NPD1), the oxidative-stressed RPE cells were treated with NPD1 (30 nM) and with lipoxin A4 or its analog (100 nM) for 14 h as indicated in FIG. 2. The percent apoptosis is expressed as described above in Example 1 as a percentage of the Hoechst positive cells.

ARPE-19 cells [2] = test: Inhibition of apoptosis induced by oxidative stress (TNF-α/H2O2) in RPE cells, Hoechst staining; assay type: cell-based, human; details: TNF-α 10 ng/ml + H2O2 600 uM, 14 h, FIG. 1
Experimental: (§1) ARPE-19 cells (L. M. Hjelmeland, ATCC #CRL-2302) were grown and maintained in DMEM-F12 medium supplemented with 10% FBS and incubated at 37° C. with a constant supply of 5% CO2. ARPE-19 cells are spontaneously transformed human retinal pigment epithelial cells that conserve cellular biological and functional properties. All chemicals were purchased from Sigma Chemical Co. (St. Louis, Mo.) unless otherwise indicated.
ARPE-19 cells growing in DMEM-F-12 medium for 72 h were serum starved for 8 h before induction of oxidative stress, as described in P. K. Mukherjee et al., “Photoreceptor outer segment phagocytosis attenuates oxidative stress-induced apoptosis with concomitant neuroportectin D1 synthesis,” PNAS, vol. 104, pp. 13158-13163 (2007). Oxidative stress was introduced by TNF-α (10 ng/ml) and H2O2 (600 uM) for 14 h and challenged with different concentrations of either lipoxin-A4 or lipoxin A4 epimer 15 (10 nM, 50 nM, and 100 nM; Calbiochem, Madison, Wis.), as indicated in FIG. 1. In initial experiments to test whether lipoxin caused stress, lipoxin A4 and lipoxin A4 epimer 15 were added to RPE cells in which oxidative stress had not been induced with TNF-α or H2O2. The apoptotic cell death was scored by Hoechst staining, as described in Mukherjee et al., 2007. The results were expressed as percentage inhibition of apoptosis by counting the Hoechst positive cells, and are shown in FIG. 1.

ARPE-19 cells [3] = test: Apoptosis in RPE cells in which oxidative stress had not been induced (test whether lipoxin caused stress), Hoechst staining; assay type: cell-based
Experimental: as §1
ARPE-19 cells growing in DMEM-F-12 medium for 72 h were serum starved for 8 h before induction of oxidative stress, as described in P. K. Mukherjee et al., “Photoreceptor outer segment phagocytosis attenuates oxidative stress-induced apoptosis with concomitant neuroportectin D1 synthesis,” PNAS, vol. 104, pp. 13158-13163 (2007). Oxidative stress was introduced by TNF-α (10 ng/ml) and H2O2 (600 uM) for 14 h and challenged with different concentrations of either lipoxin-A4 or lipoxin A4 epimer 15 (10 nM, 50 nM, and 100 nM; Calbiochem, Madison, Wis.), as indicated in FIG. 1. […] The apoptotic cell death was scored by Hoechst staining, as described in Mukherjee et al., 2007. The results were expressed as percentage inhibition of apoptosis by counting the Hoechst positive cells, and are shown in FIG. 1.

COX-2 promoter construct = test: Interleukin-1β induced COX-2 promoter construct (huCOX-2-LUC) luciferase assay in RPE cells; assay type: cell-based, human; details: IL-1β 10 ng/ml, 14 h
Experimental: COX-2 is a proinflammatory protein that participates in RPE cell injury. ARPE-19 cells were grown over night in six well plates and then transfected with huCOX-2-LUC (−830) promoter construct (5 ug) for 24 h. Transfected cells were serum starved for 8 h before the addition of IL-1β (10 ng/ml). IL-1β treated cells were challenged with 100 nM, 500 nM, and 1000 nM concentrations of lipoxin A4 and lipoxin A4 epimer 15 for 14 h. Cells were then harvested, and luciferase assays were performed using luciferin as substrate.

[4] = 100, 500, 1000 nM, luciferase, FIG. 3

Row | SMILES | effect of lipoxin combined with NPD1 on oxidative stress-induced apoptosis (ARPE-19 cells [1]) | inhibition of apoptosis in RPE cells under oxidative stress (ARPE-19 cells [2]; 100 nM) | inhibition of apoptosis in RPE cells under oxidative stress (ARPE-19 cells [2]; 10, 50, 100 nM) | induction of apoptosis in RPE cells (ARPE-19 cells [3]) | inhibition of IL-1β mediated induction of COX-2 promoter construct (COX-2 promoter construct; 100 nM (lowest inhibition)) | inhibition of IL-1β mediated induction of COX-2 promoter construct (COX-2 promoter construct; 1000 nM) | inhibition of IL-1β mediated induction of COX-2 promoter construct (COX-2 promoter construct; [4]) | induction of apoptosis in RPE cells (ARPE-19 cells [3]; no oxidative stress (no TNF-α or H2O2), Hoechst positive cells, FIG. 1)
1 | CCCCC[C@H](O)/C=C/C=C\C=C\C=C\[C@@H](O)[C@@H](O)CCCC(=O)O [lipoxin A4] | additive | highest inhibition | able to inhibit apoptosis in RPE cells in a concentration-dependent manner | did not induce apoptosis | 35% | highest | inhibit IL-1β mediated induction of COX-2 promoter construct in RPE cells in a concentration-dependent manner | –
2 | CC/C=C\C[C@H](O)\C=C/C=C/C=C/[C@H](O)C/C=C\C/C=C\CCC(=O)O [NPD1, neuroprotectin D1, reference compound] | additive | – | – | – | – | – | – | –
3 | CCCCC[C@@H](O)/C=C/C=C\C=C\C=C\[C@@H](O)[C@@H](O)CCCC(=O)O (single isomer, unassigned; epimer 15) [lipoxin A4 epimer 15, 15-epi-lipoxin A4] | – | highest inhibition | able to inhibit apoptosis in RPE cells in a concentration-dependent manner | – | 35% | highest | inhibit IL-1β mediated induction of COX-2 promoter construct in RPE cells in a concentration-dependent manner | did not induce apoptosis
